Literature values, collected in patent publication US20130064803A1, “BIO-REPLENISHMENT (BioRep) FOR COGNITIVE HEALTH” (Naidu LP, priority 2011, published 2013).

Legend:
[1] = in vivo

Compound | share of an oral dose ending up in the bloodstream | first-pass, share metabolized in the liver [1]
N[C@@H](Cc1c[nH]c2ccc(O)cc12)C(=O)O [5-HTP, 5-hydroxy-tryptophan] | about 70% | 
C[S+](CC[C@H](N)C(=O)O)C[C@H]1O[C@@H](n2cnc3c(N)ncnc32)[C@H](O)[C@@H]1O (some centres unmarked) [SAMe, S-adenosylmethionine] |  | approximately 50%
